The record followed here is publication PMC8518806 (2021).

The test system of assay [1] is BeCA (RNA8-2) (RNA, aptamer) GGAGGUACGUGGACUGCUUAUGCAGUAGGAAGGCCUCC
In words: fluorescence turn-on titration. As to conditions: 125 mM KCl, 5 mM MgCl2; 20 mM Hepes pH 7.4; 100 nM BC1-DN.

Assay [2] concerns RNA8-1 (RNA, aptamer) GGAGGCAGGGCUUAGUUGAGGUACGUGGACUGCUUAUGCAGUAGGAAGGCCUCACUUUUCCGCCGUUGGCACCAC
In words: fluorescence turn-on titration. Conditions: 125 mM KCl, 5 mM MgCl2; 20 mM Hepes pH 7.4; 100 nM BC1-DN.

In assay [3] the test system is RNA8-3 (RNA, aptamer) GGAGGUACGUGGAUAGGAAGGCCUCC
In words: fluorescence turn-on titration. Conditions: 125 mM KCl, 5 mM MgCl2; 20 mM Hepes pH 7.4; 100 nM BC1-DN.

The subject of assay [4] is M1 (RNA, aptamer) GGAGGCACGUGGACUGCUUAUGCAGUAGGAAGGCCUCC
Nature of the assay: fluorescence turn-on titration. As to conditions: 125 mM KCl, 5 mM MgCl2; 20 mM Hepes pH 7.4; 100 nM BC1-DN.

Assay [5] relates to M2 (RNA, aptamer) GGAGGGACGUGGACUGCUUAUGCAGUAGGAAGCCCUCC
In words: fluorescence turn-on titration. Conditions: 125 mM KCl, 5 mM MgCl2; 20 mM Hepes pH 7.4; 100 nM BC1-DN.

For assay [6], the system named is M3 (RNA, aptamer) GGAGGUACGUGGACUGCUUAUGCAGUAGGAAGACCUCC
Nature of the assay: fluorescence turn-on titration. Conditions: 125 mM KCl, 5 mM MgCl2; 20 mM Hepes pH 7.4; 100 nM BC1-DN.

Assay [7] concerns M4 (RNA, aptamer) GGAGGUACGUGGACUGCUUAUGCAGUAGGAAGCCCUCC
In words: fluorescence turn-on titration. Conditions: 125 mM KCl, 5 mM MgCl2; 20 mM Hepes pH 7.4; 100 nM BC1-DN.

The test system of assay [8] is M5 (RNA, aptamer) GGAGGUACGUGGACUGCUUAUGCAGUAGGAAGUCCUCC
In words: fluorescence turn-on titration. As to conditions: 125 mM KCl, 5 mM MgCl2; 20 mM Hepes pH 7.4; 100 nM BC1-DN.

For assay [9], the system named is M6 (RNA, aptamer) GGAAAUACGUGGACUGCUUAUGCAGUAGGAAGGUUUCC
In words: fluorescence turn-on titration. As to conditions: 125 mM KCl, 5 mM MgCl2; 20 mM Hepes pH 7.4; 100 nM BC1-DN.

In assay [10] the test system is M7 (RNA, aptamer) GGAGUACGUGGACUGCUUAUGCAGUAGGAAGGCUCC
Nature of the assay: fluorescence turn-on titration. As to conditions: 125 mM KCl, 5 mM MgCl2; 20 mM Hepes pH 7.4; 100 nM BC1-DN.

The test system of assay [11] is M8 (RNA, aptamer) GGAGGUCGUGGACUGCUUAUGCAGUAGGAAGGCCUCC
In words: fluorescence turn-on titration. As to conditions: 125 mM KCl, 5 mM MgCl2; 20 mM Hepes pH 7.4; 100 nM BC1-DN.

Assay [12] has as its system M9 (RNA, aptamer) GGAGGUAGUGGACUGCUUAUGCAGUAGGAAGGCCUCC
Nature of the assay: fluorescence turn-on titration. Conditions: 125 mM KCl, 5 mM MgCl2; 20 mM Hepes pH 7.4; 100 nM BC1-DN.

The test system of assay [13] is M10 (RNA, aptamer) GGAGGUACGUGGACUGCUUAUGCAGUAGGAAGCCUCC
In words: fluorescence turn-on titration. As to conditions: 125 mM KCl, 5 mM MgCl2; 20 mM Hepes pH 7.4; 100 nM BC1-DN.

Assay [14] deals with M11 (RNA, aptamer) GGAGGUACGUGGGCUGCUUAUGCAGCAGGAAGGCCUCC
In words: fluorescence turn-on titration. Conditions: 125 mM KCl, 5 mM MgCl2; 20 mM Hepes pH 7.4; 100 nM BC1-DN.

In assay [15] the test system is M12 (RNA, aptamer) GGAGGUACGUGGACUGCUUCGGCAGUAGGAAGGCCUCC
In words: fluorescence turn-on titration. Conditions: 125 mM KCl, 5 mM MgCl2; 20 mM Hepes pH 7.4; 100 nM BC1-DN.

Assay [16] relates to BeCA (RNA8-2) (RNA, aptamer) GGAGGUACGUGGACUGCUUAUGCAGUAGGAAGGCCUCC
Nature of the assay: fluorescence turn-on titration (NIR). As to conditions: 125 mM KCl, 5 mM MgCl2; 20 mM Hepes pH 7.4; 100 nM BC6.

Regarding `CN(C)c1ccc2cc(-c3cc(-c4ccc(C(=O)NCCOCCOCCNc5ccc([N+](=O)[O-])cc5[N+](=O)[O-])cc4C(=O)[O-])c4ccc(N(C)C)cc4[o+]3)c(=O)oc2c1`, the KD (as a rule, the free concentration of one partner at which half of the binding sites on the other are occupied at equilibrium, for simple one-to-one binding) in assay [1] is 230 nM; in [2], 900 ± 200 nM; in assay [3] it was more than 10000 nM; in assay [4] it was 1100 ± 470 nM; in [5], 1700 ± 480 nM; in [6] it was 620 ± 190 nM. For the same compound, the KD in assay [7] is 4600 ± 1400 nM; in assay [8], 1300 ± 270 nM; in [9], 350 ± 50 nM; in [10], 200 ± 30 nM; in assay [11] it was 1100 ± 440 nM; in assay [12], 250 ± 60 nM. The KD in assay [13] was 770 ± 180 nM; in assay [14], 270 ± 80 nM; in assay [15], 330 ± 120 nM.
For the compound `CN(C)c1ccc2c(c1)OC(c1cc3ccc(N(C)C)cc3oc1=O)=CC21c2ccccc2C(=O)N1C#N` (stereo not shown), the “KD” value in assay [16] came to 220 nM. That is a sub-micromolar value.
